We go through two compounds from patent US20260055120A1, “Bicyclic pyrimidinones as inhibitors of NOX4” (Boehringer Ingelheim International GmbH, priority 2024, published 2026).

The target in one assay is NOX4 (Homo sapiens (Human), UniProt Q9NPH5). The following applies: modified human embryonic kidney (HEK) cells, Amplex Red as detecting reagent; read-out: NOX4 IC50 as disclosed in WO2016207785; cited from earlier work.
A further assay deals with human NOX4 (hNOX4) (Homo sapiens (Human), UniProt Q9NPH5). Put plainly: NOX4 inhibition assay (HyPerBlu). It is filed as cell-based. The conditions noted are these: HEK293 cells overexpressing hNOX4, HyPerBlu.
Chain of human NOX4 (hNOX4) (Q9NPH5 whole entry): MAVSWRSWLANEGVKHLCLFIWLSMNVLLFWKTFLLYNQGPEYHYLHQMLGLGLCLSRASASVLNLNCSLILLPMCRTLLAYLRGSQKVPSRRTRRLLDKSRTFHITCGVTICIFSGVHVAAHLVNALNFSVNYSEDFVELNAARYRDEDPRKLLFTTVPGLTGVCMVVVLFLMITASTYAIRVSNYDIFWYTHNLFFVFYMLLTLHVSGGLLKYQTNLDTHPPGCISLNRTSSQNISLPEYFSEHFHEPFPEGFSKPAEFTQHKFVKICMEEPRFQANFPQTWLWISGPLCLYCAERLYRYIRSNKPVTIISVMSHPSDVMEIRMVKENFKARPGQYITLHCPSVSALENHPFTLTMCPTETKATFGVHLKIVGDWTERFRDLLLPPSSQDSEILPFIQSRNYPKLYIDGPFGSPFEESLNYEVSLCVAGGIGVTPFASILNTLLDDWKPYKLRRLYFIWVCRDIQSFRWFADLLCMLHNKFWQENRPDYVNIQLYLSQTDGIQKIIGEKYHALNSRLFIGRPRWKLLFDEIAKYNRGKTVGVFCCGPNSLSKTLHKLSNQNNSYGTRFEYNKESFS
Chain of human NOX4 (hNOX4) (P13498 2-195 partner): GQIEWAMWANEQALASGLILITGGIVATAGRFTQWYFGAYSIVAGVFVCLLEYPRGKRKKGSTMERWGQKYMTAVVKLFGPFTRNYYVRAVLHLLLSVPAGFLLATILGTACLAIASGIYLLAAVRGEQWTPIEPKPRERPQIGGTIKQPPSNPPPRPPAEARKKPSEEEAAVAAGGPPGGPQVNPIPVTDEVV

Chain of NOX4 (Q9NPH5 whole entry, species assumed): as the sequence (Q9NPH5 whole entry) above
Chain of NOX4 (P13498 2-195 partner, species assumed): as the sequence (P13498 2-195 partner) above
Protocol for human NOX4 (hNOX4): NOX4 inhibition is assessed utilizing HEK293 cells stably overexpressing human NOX4 (hNOX4), generating constitutively high levels of hydrogen peroxide (H2O2). Cells are cultured in the Dulbecco's Modified Eagle Medium (DMEM) media containing 4.5 g/L glucose supplemented with 10% fetal calf serum and 250 μg/ml Zeocin in an incubator at 37° C. with 5% CO2. For the assay, cells are seeded in 384 well plates. […] After incubation Lumigen HyPerBlu™ is added and cells are incubated for additional 30 min at 24° C. in a humidified incubator. Next, luminescence is measured using an Envision Multimode Plate reader to determine levels of produced H2O2 in the wells.

One may read the IC50 as the concentration at which inhibition is half-maximal. Regarding `O=C(Nc1ccc2oc(N3CCC34COC4)nc2c1)c1ccc2c(c1)CCO2` [WO2016207785 example 15], the IC50 at NOX4 is 0.4 µM. In the case of `O=c1c2ncccc2nc(SCc2ccccc2F)n1-c1ccc(Cl)cc1` [WO2005049613 example 59], on human NOX4 (hNOX4), 79 µM corresponded to half-maximal inhibition (IC50).
